In patent publication US8114904B2, “Luminescence quenchers and fluorogenic probes for detection of reactive species” (Versitech Limited & Morningside Ventures Limited, priority 2008, dated 2012):

Tests used:
[1] = UV-visible absorption spectrum; assay type: physicochemical; conditions: 10 μM solution, pH 7.4 0.1 M phosphate buffer, 0.1% DMF
Experimental: Compound 10 obtained in Example 4 was dissolved in pH 7.4 0.1 M phosphate buffer containing 0.1% DMF as cosolvent to form a 10 μM solution.
Compound 12 obtained in Example 5 was dissolved in pH 7.4 0.1 M phosphate buffer containing 0.1% DMF as cosolvent to form a 1 μM solution.
Compound 14 obtained in Example 6 was dissolved in pH 7.4 0.1 M phosphate buffer containing 0.1% DMF as cosolvent to form a 1 μM solution.
Compound 30 obtained in Example 7 was dissolved in pH 7.4 0.1 M phosphate buffer containing 0.1% DMF as cosolvent to form a 10 μM solution. The absorption spectrum of the 10 μM solution of Compound 30 was measured.

[2] = Detection of peroxynitrite: fluorescence spectra after addition of peroxynitrite; conditions: 10 μM probe, 0.1 M potassium phosphate buffer pH 7.4, measured after 5 minutes, excitation 520 nm
Experimental: Compound 10 obtained in Example 4 was dissolved in DMF to a concentration of 10 mM, and then the solution was diluted to 10μM by 0.1 M potassium phosphate buffer (pH 7.4). Peroxynitrite solution in 0.1 M NaOH was prepared by the method of Keith and Powell (Keith, W. G. & Powell, R. E.; Kinetics of decomposition of peroxynitrous acid; J. Chem. Soc. A, 1969, 1, 90), and its concentration in the stock solutions used was estimated by using an extinction coefficient of 1670 cm^−1 (mol/L)^−1 at 302 nm (Hughes and Nicklin; The chemistry of pernitrites. Part I. Kinetics of decomposition of pernitrious acid; J. Chem. Soc. A, 1968, 2, 450-452). Peroxynitrite stock solution was added into the solution of Compound 10 to provide various final concentrations, like 0, 2, 6, 10, 20, 30, 50 100, and 200 μM. Fluorescence spectra of the solutions were measured after 5 minutes under the same conditions as mentioned above.
Compound 12 obtained in Example 5 was dissolved in DMF to a concentration of 1 mM, and then the solution was diluted to 1 μM by 0.1 M potassium phosphate buffer (pH 7.4). Peroxynitrite solution in 0.1 M NaOH was prepared by the method of Keith and Powell (Keith, W. G. & Powell, R. E.; Kinetics of decomposition of peroxynitrous acid; J. Chem. Soc. A, 1969, 1, 90), and its concentration in the stock solutions used was estimated by using an extinction coefficient of 1670 cm^−1 (mol/L)^−1 at 302 nm (Hughes and Nicklin; The chemistry of pernitrites. Part I. Kinetics of decomposition of pernitrious acid; J. Chem. Soc. A, 1968, 2, 450-452). Peroxynitrite stock solution was added into the solution of Compound 12 to provide various final concentrations, like 0, 1, 2, 3, 4, 5, 6, and 7 μM. Fluorescence spectra of the solutions were measured after 5 minutes under the same conditions as mentioned above.
Compound 30 obtained in Example 7 was dissolved in DMF to a concentration of 10 mM, and then the solution was diluted to 10 μM by 0.1 M potassium phosphate buffer (pH 7.4). Peroxynitrite solution in 0.1 M NaOH was prepared by the method of Keith and Powell (Keith, W. G. & Powell, R. E.; Kinetics of decomposition of peroxynitrous acid; J. Chem. Soc. A, 1969, 1, 90), and its concentration in the stock solutions used was estimated by using an extinction coefficient of 1670 cm^−1 (mol/L)^−1 at 302 nm (Hughes and Nicklin; The chemistry of pernitrites. Part I. Kinetics of decomposition of pernitrious acid; J. Chem. Soc. A, 1968, 2, 450-452). Peroxynitrite stock solution was added into the solution of Compound 30 to provide various final concentrations. Fluorescence spectra of the solutions were measured after 5 minutes under the same conditions as mentioned above.

[3] = Emission spectra of the probe itself; assay type: physicochemical; conditions: 10 μM, 0.1 M phosphate buffer pH 7.4, excitation 520 nm, Hitachi F7000, 900 V
Experimental: (§1) Compound 10 obtained in Example 4 was dissolved in DMF to a concentration of 10 mM, and then the solution was diluted to 10 μM by 0.1 M phosphate buffer (pH 7.4). The fluorescence spectrum of the 10 μM solution of Compound 10 was measured using a Hitachi F2500 fluorescence spectrometer and the photomultiplier voltage was 700 V. The slit width was 2.5 nm for both excitation and emission. The measurement was carried out at an excitation wavelength of 520 nm. The results shown in FIG. 1 indicate that Compound 10 itself is non-fluorescent.
(§2) Compound 12 obtained in Example 5 was dissolved in DMF to a concentration of 1 mM, and then the solution was diluted to 1 μM by 0.1 M phosphate buffer (pH 7.4). The fluorescence spectrum of the 1 μM solution of Compound 12 was measured using a Hitachi F2500 fluorescence spectrometer and the photomultiplier voltage was 700 V. The slit width was 2.5 nm for both excitation and emission. The measurement was carried out at an excitation wavelength of 515 nm. The results shown in FIG. 4 indicate that Compound 12 itself is non-fluorescent.
as §2, with “Compound 14” for “Compound 12”, “Example 6” for “Example 5”, “FIG. 6” for “FIG. 4”
as §1, with “Compound 30” for “Compound 10”, “Example 7” for “Example 4”, “Hitachi F7000” for “Hitachi F2500”, “was 900” for “was 700”, “nm.” for “nm. The results shown in FIG. 1 indicate that Compound 10 itself is non-fluorescent.”

[4] = tested on: Murine J744.1 macrophages; test: Cell assay: detection of peroxynitrite in living cells by fluorescent microscopy; assay type: cell-based; conditions: for fluorescence observed in the absence of stimulants: J744.1 macrophages incubated with 20 μM probe for 1 hr
Experimental: (§3) Murine J744.1 macrophages (ATCC, USA) were used to investigate the potential of Compound 22 (acetate form of Compound 10) for the detection of peroxynitrite in living cells. J744.1 macrophages were cultured in Dulbecco's Modified Eagle's Medium (DMEM) (Gibco) containing 10% heat-inactivated fetal bovine serum (Gibco) supplemented with 100 U/ml of penicillin and 100 μg/ml streptomycin at 37° C., 5% CO2. They were subcultured by scraping and seeded on six-well plates according to manufacture's instruction. The growth medium was changed every two to three days. Cells were grown to confluence prior to experiment. Murine J744.1 macrophages were incubated with Compound 22 (20 μM) for 1 hr and then washed three times with PBS buffer.
as §3, with “12 and 12a” for “22 (acetate form of Compound 10)”, “12 or 12a” for “22”, “buffer. […] The fluorescence was induced after treatment with LPS (lipopolysaccharide, 1 μg/ml) for 4 hrs (FIG. 9D and FIG. 10B).” for “buffer.”

| absorption maximum [1] | fluorescence of the probe itself [3] | SMILES | fluorescence intensity after the addition of peroxynitrite [2] | fluorescence after treatment with LPS and IFN-γ ([4]; 20 μM probe 1 hr, LPS 1 μg/ml and IFN-γ 50 ng/ml for 4 hrs) | fluorescence after additional stimulation by PMA ([4]; 20 μM probe 1 hr, LPS and IFN-γ 4 hrs, then PMA 10 nM for half an hour) | fluorescence observed in the absence of stimulants [4] | suitability for detection of peroxynitrite in stimulated macrophages ([4]; stimulated Murine J744.1 macrophages) | fluorescence after treatment with LPS ([4]; 20 μM probe 1 hr, LPS 1 μg/ml for 4 hrs) |
| --- | --- | --- | --- | --- | --- | --- | --- | --- |
| about 540 nm | may be non-fluorescent | CN(c1ccc(O)cc1)c1ccc2c(ccc3c(-c4ccccc4C(=O)O)c4cc(Cl)c(=O)cc-4oc32)c1 [Compound 30] | increases significantly |  |  |  |  |  |
|  |  | CC(=O)Oc1cc2c(cc1Cl)C1(OC(=O)c3ccccc31)c1cc(Cl)c(N(C)c3ccc(CCC(=O)C(F)(F)F)cc3)cc1O2 (stereo not drawn) [Compound 22] |  | induced | strong fluorescence | very weak fluorescence | suitable for the detection of peroxynitrite |  |
|  |  | CC(=O)Oc1ccc(N(C)c2ccc3c(c2)Oc2cc(OC(C)=O)ccc2C32OC(=O)c3ccccc32)cc1 (stereo not drawn) [Compound 12a] |  |  |  | very weak fluorescence |  | induced |
